Assay results: US20040009485A1, “Cellular arrays for the identification of altered gene expression” (priority 2002, published 2004)
Values joined by “and” are separate entries in the source; they are usually repeats but may differ in a detail not shown here. Equal entries are not always repeated.

Key:
[1] = system: LuxArray 1.0 luxCDABE gene fusions; assay: LuxArray 1.0 solid phase identification of nalidixic acid responsive gene fusions; type: cell-based, E. coli; settings: 5 μg/ml, duplicate spots; for Solid expt NA/LB, t = 2 hr / Solid expt NA/LB, t = 4 hr / Solid expt NA/LB, t = 6 hr / Solid expt NA/LB, t = 8 hr: normalized; for upregulation on LuxArray 1.0: 4 hours of nalidixic acid treatment
Description: The genome-registered Lux-A luxCDABE gene fusion collection. (described in Example 1) provided a list of 4988 plasmid-borne gene fusions, each with boundary information relative to the E. coli genome and the orientation relative to the lux operon. An operably linked or a functional construct was defined as one consisting of a genomic fragment encompassing a promoter adjacent to the promoterless lux operon in an orientation that causes transcription initiated at the promoter to proceed into and through the lux operon. Therefore, to identify the functional subset of the collection, criteria were computationally applied to filter the list of clones first for functionality and second for redundancy. A list of definitions of documented and predicted operons (Thieffry et al. (1998) Bioinformatics 14:391-400) was used to define genomic coordinates of the operons as the translational start codon position of the first open reading frame (ORF) in the operon and the translational stop codon position of the last ORF in the operon. Additional information included the strand on which the operon is coded (direction of transcription), and gene names (common or “b” number). The lux gene fusions were filtered computationally using the following assumptions; (i) a functional transcriptional fusion would result from any genomic fragment starting greater than 50 base pairs upstream of the start codon of the first ORF and ending anywhere between the start codon of the first ORF in the operon and the stop codon of the last ORF in the operon, thereby eliminating the occurrence of a transcriptional stop signal in the construct between the promoter and the lux operon; and (ii) the promoter contained in the genomic fragment must face in the correct orientation relative to the lux operon (pictorially represented in FIG. 6). Finally, in cases when more then one clone fit the criteria for a single operon, only the one construct containing the genomic fragment representing the greatest amount of upstream sequence was retained thereby eliminating redundancy. The PERL code used and the resulting list of 689 selected gene fusions are found in Scheme 1 and Table 18 (following Example 7). These fusions represent 27% of the 2584 known and predicted transcriptional units in the E. coli genome. Individual cultures of strains containing the identified gene fusions were rearranged from the ninety original culture plates to create a set of sixteen 96-well microplates containing all the identified fusions, duplicated with side by side symmetry, including appropriately placed controls. These 16 plates represent were used to generate the cellular arrays for use in subsequent analyses.
The E. coli strains were grown overnight at 37° C. in […]) LB medium supplemented with 100 μg/ml ampicillin in a set of sixteen 96-well dishes. These cultures were designated “printing plates” and were used as the cell source to manufacture the arrays. Porous membranes (Biodyne B, Nunc) were sterilized with UV illumination for 10 min then placed in contact with pre-warmed of solid LB growth media in a culture dish (OmniTray, Nunc). Printing of 4×4 subarrays was accomplished using a BioMek 2000 (Beckman Coulter) equipped with a High Density Replication Tool (HDRT). […] After sterilization, the pins are air-dried prior to the next transfer. The E. coli strains in the LuxArray were printed onto an approximately 8×12 cm membrane in two sets of triplicates.
Arrays were printed from fresh overnight cultures onto membranes on plates containing LB media. Alter 6 hr of growth at 37° C. membranes were moved to pre-warmed plates containing either LB media or LB media supplemented with 5 μg/ml nalidixic acid then replaced at 37° C. to continue growing. Images were collected for each array every two hours from 0-8 hr after relocation using a cooled CCD camera (FluorChem 8000: f0.85 lens, 2 min exposure, AlphaInnotech). […]

[2] = system: Luxarray 0.5 reporter clones; assay: High density Luxarray 0.5 nalidixic acid perturbation (cooled CCD camera); type: cell-based, E. coli; settings: 5 μg/ml, 0-8 hr
Procedure: The clones of Luxarray 0.5 were used to print arrays as described above at a 4×4 density. That is to say that each single spot as in FIG. 3 was replicated 16× in a 4×4 subarray. […] Arrays were printed in triplicate from fresh overnight cultures onto membranes on plates containing LB media. […] Cultures were replaced at 37° C. to continue growing. Images were collected for each array every two hours from 0-8 hr after relocation using a cooled CCD camera (FluorChem 8000: f0.85 lens, 2 min exposure. AlphaInnotech). Spot intensity was determined using ArrayVision™ (Imaging Research, Toronto, Canada).
In contrast, light production from the strain carrying the lac promoter fusion as well as several strains carrying other promoter fusions was decreased.

[3] = 1pxA 1pxB rnhB dnaE fusion (lux-a.pk061.c3), listed as NA
[4] = b1728 fusion (lux-a.pk033.c5), listed as NA
[5] = b1936 fusion (lux-a.pk0019.g1), listed as NA
[6] = dinG ybiB fusion (lux-a.pk0024.f5), listed as NA
[7] = dinP fusion (lux-a.pk055.a3), listed as NA
[8] = fusion (lux-a.pk0015.d6), listed as NA
[9] = oraA fusion (lux-a.pk058.f5), listed as NA
[10] = uvrA fusion (lux-a.pk0001.b6), listed as NA
[11] = yaaF fusion (lux-a.pk031.e7), listed as NA
[12] = yfhJ fdx hscA yfhE fusion (lux-a.pk0019.g2), listed as NA

`CCn1cc(C(=O)O)c(=O)c2ccc(C)nc21` [Nalidixic acid, nalidixic acid] was tested, and the “Solid expt NA/LB, t = 2 hr” value [1, 3] was 3.5 and 2.7, the “Solid expt NA/LB, t = 4 hr” value [1, 3] was 3.1 and 3.5 and the “Solid expt NA/LB, t = 6 hr” value [1, 3] was 2.8 and 3.0. The “Solid expt NA/LB, t = 8 hr” value [1, 3] was 1.7 and 1.9, the “Solid expt NA/LB, t = 2 hr” value [1, 4] was 3.7 and 2.1 and the “Solid expt NA/LB, t = 4 hr” value [1, 4] was 4.3 and 3.1. The “Solid expt NA/LB, t = 6 hr” value [1, 4] was 3.2 and 3.3, the “Solid expt NA/LB, t = 8 hr” value [1, 4] was 2.6 and 2.5 and the “Solid expt NA/LB, t = 2 hr” value [1, 5] was 2.5 and 4.4. The “Solid expt NA/LB, t = 4 hr” value [1, 5] was 7.7 and 8.2, the “Solid expt NA/LB, t = 6 hr” value [1, 5] was 9.7 and 15.5 and the “Solid expt NA/LB, t = 8 hr” value [1, 5] was 7.1 and 10.2. For the same compound, the “Solid expt NA/LB, t = 2 hr” value [1, 6] was 2.5 and 3.4, the “Solid expt NA/LB, t = 4 hr” value [1, 6] was 3.7 and 4.2 and the “Solid expt NA/LB, t = 6 hr” value [1, 6] was 3.5 and 3.1. The “Solid expt NA/LB, t = 8 hr” value [1, 6] was 2.9 and 2.6, the “Solid expt NA/LB, t = 2 hr” value [1, 7] was 3.1 and 5.5 and the “Solid expt NA/LB, t = 6 hr” value [1, 7] was 4.2 and 8.1. The “Solid expt NA/LB, t = 4 hr” value ([1]; frvR frvX frvB frvA fusion (lux-a.pk046.e6)) was 2.3, the “Solid expt NA/LB, t = 2 hr” value ([1]; frvR frvX frvB frvA fusion (lux-a.pk046.e6), listed as NA) was 2.8 and 2.1 and the “Solid expt NA/LB, t = 2 hr” value [1, 8] was 2.3 and 2.2. The “Solid expt NA/LB, t = 4 hr” value [1, 8] was 6.4 and 4.1, the “Solid expt NA/LB, t = 6 hr” value [1, 8] was 2.7 and 1.9 and the “Solid expt NA/LB, t = 8 hr” value [1, 8] was 0.6 and 0.8. For the same compound, the “Solid expt NA/LB, t = 2 hr” value [1, 9] was 5.1 and 4.7, the “Solid expt NA/LB, t = 4 hr” value [1, 9] was 7.9 and 7.7 and the “Solid expt NA/LB, t = 6 hr” value [1, 9] was 5.9 and 5.6. The “Solid expt NA/LB, t = 8 hr” value [1, 9] was 3.9 and 3.8, the “upregulation on LuxArray 1.0” value ([1]; ruvA fusion) was 1.7 fold and 2.1 fold and the “Solid expt NA/LB, t = 2 hr” value [1, 10] was 2.5 and 2.9. The “Solid expt NA/LB, t = 4 hr” value [1, 10] was 2.3 and 2.4, the “Solid expt NA/LB, t = 6 hr” value [1, 10] was 1.6 and 1.1 and the “Solid expt NA/LB, t = 8 hr” value [1, 10] was 1.0 and 0.6. For the same compound, the “upregulation on LuxArray 1.0” value ([1]; uvrD fusion) was 1.6 fold and 1.9 fold, the “Solid expt NA/LB, t = 2 hr” value [1, 11] was 2.1 and 2.0 and the “Solid expt NA/LB, t = 4 hr” value [1, 11] was 2.0 and 2.1. For the same compound, the “Solid expt NA/LB, t = 6 hr” value [1, 11] was 1.3 and 1.8, the “Solid expt NA/LB, t = 8 hr” value [1, 11] was 1.0 and 1.5 and the “Solid expt NA/LB, t = 2 hr” value ([1]; yfhJ fdx hscA yfhE fusion (lux-a.pk0019.g2)) was 2.1. For the same compound, the “Solid expt NA/LB, t = 4 hr” value [1, 12] was 2.0 and 2.2, the “Solid expt NA/LB, t = 6 hr” value [1, 12] was 1.7 and 1.5 and the “Solid expt NA/LB, t = 8 hr” value [1, 12] was 1.4 and 1.3. For the same compound, the “Solid expt NA/LB, t = 4 hr” value ([1]; yigN fusion (lux-a.pk046.f11), listed as NA) was 2.5 and 4.3, the “reporter expression, high density array” value ([2]; five documented DNA damage-responsive reporter constructs) was “upregulation of expression” and the “light production, high density array” value ([2]; lac promoter fusion and several other promoter fusions) was “decreased”.
